Laboratory results: ChEMBL document CHEMBL4651402, “Screening of ~5500 FDA-approved drugs and clinical candidates for anti-SARS-CoV-2 activity” (2021)

Tested on: SARS-CoV-2
Test: microbe, parasite or virus in culture
Details: Severe acute respiratory syndrome coronavirus 2, Vero C1008, 48 h

| SMILES | IC50 [µM] | IC50 (read-out: pIC50 (converted)) [µM] |
| --- | --- | --- |
| CC(C)(C)NCC(O)COc1cccc2c1CC(O)C(O)C2 (stereo not given) [NADOLOL] | > 20 | > 20 |
| COc1ccc(-c2cc(=O)c3c(OC)cc(OCC(=O)O)cc3o2)cc1OC [RECOFLAVONE] | > 20 | > 20 |
| Nc1ncn([C@@H]2O[C@H](CO)[C@@H](O)[C@H]2O)c(=O)n1 [AZACITIDINE] | > 20 | > 20 |
| CC[C@]12C=CCN3CCC4(c5ccc(OC)cc5N(C)[C@H]4[C@](O)(C(=O)OC)[C@@H]1OC(C)=O)C32 (stereo not given in full) | > 20 | > 20 |
| C[C@@H]1CC[C@@]2(OC1)O[C@H]1C[C@H]3[C@@H]4CC=C5C[C@@H](O)CC[C@]5(C)[C@H]4CC[C@]3(C)[C@H]1[C@@H]2C [DISOGENIN] | > 20 | > 20 |
| CN1Cc2c(ccc3c2OCO3)C2C(O)Cc3cc4c(cc3C21)OCO4 (stereo not drawn) [CHELIDONINE (+)] | > 20 | > 20 |
| O=C(NO)c1cc(Br)ccc1O [BROMOCYL] | > 20 | > 20 |
| Cc1ccccn1 | > 20 | > 20 |
| OC[C@@H](O)[C@H]1O[C@@H]2O[C@H](C(Cl)(Cl)Cl)O[C@@H]2[C@H]1O [CHLORALOSE] | > 20 | > 20 |
| CCCSc1ccc2[nH]c(NC(=O)OC)nc2c1 [ALBENDAZOLE] | > 20 | > 20 |
| O=C(O)CCCCO/N=C(/c1cccnc1)c1cccc(C(F)(F)F)c1 [RIDOGREL] | > 20 | > 20 |
| COC(=O)CC(O)(CCC(C)(C)O)C(=O)OC1C(OC)=CC23CCCN2CCc2cc4c(cc2C13)OCO4 (stereo not given) | > 20 | > 20 |
| O=C(c1ccccc1)C(O)c1ccccc1 (stereo not given) [BENZOIN] | > 20 | > 20 |
| CN1CCc2cc3c(cc2C1O)OCO3 (stereo not given) [HYDRASTININE] | > 20 | > 20 |
| CC(=O)OC1CC2CCC3C(CCC4(C)C3CC(N3CC[N+](C)(C)CC3)C4OC(C)=O)C2(C)CC1N1CC[N+](C)(C)CC1 (stereo not given) | > 20 | > 20 |
| NC(=O)NC(=O)Cc1ccccc1 [PHENACEMIDE] | > 20 | > 20 |
| CC(C)[C@@]1(NC(=O)[C@@H]2C[C@@H]3c4cccc5[nH]cc(c45)C[C@H]3N(C)C2)O[C@@]2(O)[C@@H]3CCCN3C(=O)[C@H](Cc3ccccc3)N2C1=O [DIHYDROERGOCRISTINE] | > 20 | > 20 |
| CCN(CC)CCNC(=O)c1ccc(NC(C)=O)cc1 [ACECAINIDE] | > 20 | > 20 |
| CNCC(O)c1ccc(O)c(O)c1 (stereo not given) [RACEPINEPHRINE] | > 20 | > 20 |
| COc1ccc2c(c1)CCC1C2CCC2(C)C(O)CCC12 (stereo not given) | > 20 | > 20 |

| SMILES | IC50 [µM] | IC50 (read-out: pIC50 (converted)) [µM] |
| --- | --- | --- |
| O=c1[nH]cnc2c([C@@H]3N[C@H](CO)[C@@H](O)[C@H]3O)c[nH]c12 [FORODESINE] | > 20 | > 20 |
| CCOC(=O)[C@H](CCc1ccccc1)N[C@@H](C)C(=O)N1[C@H](C(=O)O)C[C@H]2CCCC[C@@H]21 [TRANDOLAPRIL] | > 20 | > 20 |
| CNC(=O)[C@H]1O[C@@H](n2cnc3c(NCc4cccc(I)c4)ncnc32)[C@H](O)[C@@H]1O [IB-MECA] | > 20 | > 20 |
| COc1cc(N)c(Cl)cc1C(=O)N[C@H]1CCNC[C@H]1OC | > 20 | > 20 |
| CCCCOC(=O)c1ccc(O)cc1 [BUTYLPARABEN] | > 20 | > 20 |
| CCN1C[C@]2(C)CC[C@H](O)[C@@]34[C@@H]5C[C@H]6[C@H](O)[C@@H]5[C@](O)(C[C@@H]6OC)[C@@H](C[C@H]23)[C@H]14 | > 20 | > 20 |
| O=C(Nc1ccc(Cl)c(S(=O)(=O)N2CCNCC2)c1O)Nc1cccc(F)c1Cl [ELUBRIXIN] | > 20 | > 20 |
| CCC1(C2OC(C3OC(O)(CO)C(C)CC3C)CC2C)CCC(C2(C)CCC3(CC(O)C(C)C(C(C)C(OC)C(C)C(=O)O)O3)O2)O1 (stereo not given) | > 10 | > 10 |
| Cc1cc(Nc2cc(N3CCN(C)CC3)nc(/C=C/c3ccccc3)n2)n[nH]1 [ENMD-2076] | > 20 | > 20 |
| COc1ccc(-c2coc3cc(O)ccc3c2=O)cc1 [FORMONONETIN] | > 20 | > 20 |
| COc1ccc(/C=C/C(=O)/C=C(O)/C=C/c2ccc(OC)c(OC)c2)cc1OC | > 20 | > 20 |
| CN(C)C(=O)Oc1cccc([N+](C)(C)C)c1 [NEOSTIGMINE] | > 20 | > 20 |
| C=C[C@H]1CN2CC[C@H]1C[C@H]2[C@H](O)c1ccnc2ccc(OC)cc12 [QUININE] | > 20 | > 20 |
| O=C1Cc2cc(CCN3CCN(c4nsc5ccccc45)CC3)c(Cl)cc2N1 [ZIPRASIDONE] | > 20 | > 20 |
| O=C(Nc1ccc(Cl)cc1)c1cc(Br)ccc1O [BROMOCHLOROSALICYLANILIDE] | > 20 | > 20 |
| C[C@]12CCC(=O)C=C1CC[C@@H]1[C@@H]2CC[C@@]2(C)[C@H]1CC[C@]2(C)O [METHYLTESTOSTERONE] | > 20 | > 20 |
| COCCc1ccc(OCC(O)CNC(C)C)cc1 (stereo not given) [METOPROLOL] | > 20 | > 20 |
| CN1CCN(C2=Nc3cc(Cl)ccc3Nc3ccccc32)CC1 [CLOZAPINE] | > 20 | > 20 |
| CN1C2=CC(=O)/C(=N\NC(N)=O)C=C2CC1S(=O)(=O)O (stereo not given) [CARBAZOCHROME SULFONIC ACID] | > 20 | > 20 |
| CCCCCCCCCCCCCCC[C@@H](O)[C@@H](N)CO [DIHYDROSPINGOSINE] | > 20 | > 20 |

| SMILES | IC50 [µM] | IC50 (read-out: pIC50 (converted)) [µM] |
| --- | --- | --- |
| CCS(=O)(=O)CCn1c([N+](=O)[O-])cnc1C [TINIDAZOLE] | > 20 | > 20 |
| OC(Cn1cncn1)(Cn1cncn1)c1ccc(F)cc1F [FLUCONAZOLE] | > 20 | > 20 |
| COc1ccc(CN(CCN(C)C)c2ncccn2)cc1 [THONZYLAMINE] | > 20 | > 20 |
| Cc1c(C)c2c(c(C)c1O)CCC(C)(C(=O)O)O2 (stereo not given) [TROLOX] | > 20 | > 20 |
| CCCCN(CCCC)CCNc1nc(-c2ccccc2)no1 [BUTALAMINE] | > 20 | > 20 |
| COc1ccc(CCC(C)NCC(O)c2ccc(O)c([S+](C)[O-])c2)cc1 (stereo not given) [SULFINALOL] | > 20 | > 20 |
| COCCOc1c(OC)cc(Cc2cnc(N)nc2N)cc1OC [TETROXOPRIM] | > 20 | > 20 |
| CCOC(=O)C1(c2ccccc2)CCN(CCN2CCOCC2)CC1 [MORPHERIDINE] | > 20 | > 20 |
| CN1CCO[C@@H](c2ccccc2)c2ccccc2C1 | > 20 | > 20 |
| CCOC(=O)c1[nH]c2cc(OC)c(OC)cc2c1CCN1CCN(c2ccccc2)CC1 [ALPERTINE] | > 20 | > 20 |
| CCN(CC)CCOC(=O)C(C)(c1ccccc1)c1ccccc1 [APROFENE] | > 20 | > 20 |
| CCC1CCCC(OC2CCC(N(C)C)C(C)O2)C(C)C(=O)C2=CC3C(C=C(C)C4CC(OC5OC(C)C(OC)C(OC)C5OC)CC43)C2CC(=O)O1.CCC1CCCC(OC2CCC(N(C)C)C(C)O2)C(C)C(=O)C2=CC3C(C=CC4CC(OC5OC(C)C(OC)C(OC)C5OC)CC43)C2CC(=O)O1 (stereo not given) | > 20 | > 20 |
| CCOC(=O)C(COC(=O)Cc1ccc(NC(=O)c2ccccc2-c2ccc(C(F)(F)F)cc2)c(C(=O)N(C)C)c1)(C(=O)OCC)c1ccccc1 [GRANOTAPIDE] | > 20 | > 20 |
| CCCc1nc(C)c2c(=O)nc(-c3cc(S(=O)(=O)N4CCN(CC)CC4)ccc3OCC)[nH]n12 | > 20 | > 20 |
| O=C(/C=C/c1ccc(O)c(O)c1)OC(Cc1ccc(O)c(O)c1)C(=O)O (stereo not given) | > 20 | > 20 |
| O=C(OCCOCCO)c1ccccc1Nc1cccc(C(F)(F)F)c1 [ETOFENAMATE] | > 20 | > 20 |
| C#CCC/C(O)=C(\C#N)C(=O)Nc1ccc(C(F)(F)F)cc1 | > 20 | > 20 |
| CC(C)c1c(C(=O)Nc2ccccc2)c(-c2ccccc2)c(-c2ccc(F)cc2)n1CC[C@@H](O)C[C@@H](O)CC(=O)O [ATORVASTATIN] | > 20 | > 20 |
| COc1ccc(C(=O)OC2C[C@H]3CC[C@H](C2)N3C)cc1OC (stereo not given in full) | > 20 | > 20 |
| CC(=O)NC1(c2ccccc2)CCN(CC[C@@H](CN(C)C(=O)c2ccccc2)c2ccc(Cl)c(Cl)c2)CC1 | > 20 | > 20 |
